# Patent publication US7425579B2, “Methods for inhibiting activity of polyamine transporters” (Universite Laval, priority 1998, dated 2008)
# Tests used:
# [1] = tested on: Jurkat, LAN-1, L1210, T-47D, ZR-75-1 and MDA-MB-231 cells; assay: Effect of BNSD-X on cell proliferation in various mammalian cell lines; assay type: cell-based; settings: 1 mM aminoguanidine; 4 to 11 d
# Description: FIGS. 3A and 3B are graphs showing the effect compounds used in a method according preferred embodiment of the present invention, on cell proliferation. In particular, they relate to the effect of selected BSD and BNSD derivatives on T-47D cell proliferation. Cells were incubated for 9 d with the indicated concentrations of BSD-2 (∘), BNSD-4 (●), BSD-4 (□), BNSD-6 (▪), BSD-10 (Δ), BSD-4-ene (▴) and BSD-4-yne (▾) in medium containing 1 mM aminoguanidine, and total DNA content per culture was then determined. B, Effect of BNSD-X (N,N,N′,N′-tetrakis-(3-aminopropyl)-p-diaminoxylene) on cell proliferation in various mammalian cell lines. Jurkat (∘), LAN-1 (●), L1210 (□), T-47D (▪), ZR-75-1 (Δ) and MDA-MB-231 (▴) cells were grown to near confluency or saturation (for 4 to 11 d according to the cell line considered) with the indicated concentrations of BNSD-X in the presence of 1 mM aminoguanidine, and total DNA content per culture was then determined. Data are given as the mean±SD for triplicate cultures from one out of at least two identical experiments;
# The effect of transport inhibitors on cell proliferation was evaluated by determination of cell number (L1210, Jurkat) using electronic sizing with a Model ZM Coulter counter (Coulter Electronics, Hialeah, Fla.), or DNA content per culture (for all other cell lines) with the 3,5-diaminobenzoic acid assay. […]
# [2] = tested on: CHO-K1 cells; assay: Reversal of DFMO-induced cytostasis by exogenous spermidine in CHO-K1 cells; assay type: cell-based, Chinese hamster
# Description: FIGS. 8A and 8B are graphs representing the time course of the effect of a compound used in a method according to a preferred embodiment of the invention on rescue of DFMO-induced cytostasis by exogenous spermidine. In particular, at time zero, T-47D (panel A) or CHO-K1 (panel B) were seeded at 1×10^4 or 5×10^3 cells/well, respectively, in medium containing 1 mM aminoguanidine, plus either 0.3 μM spermidine (Spd, ●), 2 mM DFMO (□), Spd+DFMO (▪), 50 μM (A) or 100 μM (B) BNSD-X (Δ), BNSD-X+Spd (▴), BNSD-X+DFMO (□), BNSD-X+Spd+DFMO (▾), or vehicle only (∘). At the indicated time, total DNA content/well was determined. Data are presented as the mean±SD for triplicate cultures from one representative experiment;
# To determine the ability of polyamine transport antagonists to potentiate DFMO-induced inhibition of cell proliferation in the presence of exogenous polyamines, cells were grown for the indicated period in growth medium supplemented with 1 mM aminoguanidine, and either DFMO (1 to 5 mM), the indicated transport inhibitor (50 or 100 μM), or the combination thereof, as well as increasing concentrations of spermidine (0.1 to 300 μM). Fresh medium was added every other day, and cell mass was determined at various time points during the period of exponential growth, or at the end of the experimental period. For the latter experiments, the FBS supplement was replaced with dextran-coated charcoal-treated FBS (5%, v/v) plus 0.5 μg/ml insulin in the case of T-47D, ZR-75-1 and MCF-7 cells (U.S. Pat. No. 6,083,496).
# [3] = tested on: CHO-K1 cells; assay: Determination of intracellular polyamine contents in CHO-K1 cells; assay type: cell-based, Chinese hamster
# Description: At the indicated time, cells were harvested for the determination of putrescine (A), spermidine (B) and spermine contents (C). Data are presented as the mean±SD for triplicate cultures from one representative experiment; […] At the indicated time intervals, medium was removed, cell monolayers were rinsed twice: with 10 ml of ice-cold Ca^2+/Mg^2+-free phosphate-buffered saline (PBS) (2.7 mM KCl, 1.5 mM KH2PO4, 8.1 mM Na2HPO4, 137 mM NaCl), and cells were harvested by low-speed centrifugation (2400 g for 5 min at 4° C.). […] Polyamine content was then determined by ion-pair reverse phase HPLC with fluorometric detection after post-column derivatization with o-phthaldialdehyde as described (U.S. Pat. No. 6,083,496). […] Pat. No. 6,083,496).
# [4] = tested on: mice; assay: Acute and subacute oral toxicity of BNSD-X by gavage; assay type: in vivo
# Description: (§1) To assess the relative toxicity of BNSD-X, the drug was administered as a 1% (w/v) solution in the drinking water to CD-1 mice with ad libitum access for 14 d. Mice were weighed every other day during the experiment. At the end of the experiment, mice were sacrificed, and organs (kidneys, liver, and spleen) were immediately weighed. Organs were then saved in 10% formalin for morphological examination by an in-house pathologist at the CHUL Research Center (Quebec City, Canada). Acute and subacute oral toxicity of BNSD-X was also separately determined by administering the drug by gavage (0-5 g/kg body weight).
# Orally administered polyamines (at ≧0.6 g/kg/day) can have deleterious neurological effects and induce lesions on internal organs (Til et al. (1997) Food Chem Toxicol. 35:337-348.). In order to assess the acute and subacute toxicity of BNSD-X as an orally delivered hexaamine, the effects of gavage with solid BNSD-X pellets was first examined in mice.
# [5] = tested on: CD-1 mice; assay: Chronic toxicity of BNSD-X, 1% in drinking water for 14 d; assay type: in vivo; settings: 1% (w/v) in drinking water
# Description: as §1
# The chronic toxicity of BNSD-X was next evaluated by allowing CD-1 mice to drink a 1% (w/v) solution of the drug for 14 d, and then sacrificing animals for the histological examination of the liver, kidneys and spleen.
compound,measurement,setting,value
"NCCCN(CCCN)Cc1ccc(CN(CCCN)CCCN)cc1 [28a, N,N,N′,N′-tetrakis-(3-aminopropyl)-p-diaminoxylene]",effect on proliferation of a panel of mammalian cell lines,[1],remarkably inert
same,"effect on the antiproliferative action of DFMO in the nominal absence of exogenous polyamines, CHO-K1","[2]; 100 μM BNSD-X, 2 mM DFMO",strongly potentiated the antiproliferative effect of DFMO
same,"effect on spermidine-mediated reversal of DFMO-induced growth inhibition, CHO-K1","[2]; DFMO-treated CHO-K1 cells with extracellular spermidine, data not shown",afforded increased resistance to exogenous spermidine
same,reduction of intracellular spermidine content by BNSD-X alone,"[3]; 100 μM, over the first 2 days of incubation",about 50%
same,effect on intracellular putrescine content,[3]; single agent,quickly led to putrescine depletion
same,effect on intracellular spermine content,[3]; up to 4 days,no significant effect on spermine content
same,"adverse effect on animal behavior, body weight, body features and gross anatomy of kidneys, liver or spleen","[4]; gavage, up to 5.0 g/kg body weight",No external sign of sign of adverse effect
same,LD50,[4]; oral gavage with solid BNSD-X pellets,> 5 g/body weight
same,behavior and general body appearance,[5],no incidence on the behavior nor general body appearance of the animals
same,"histological morphology of the liver, kidney and spleen",[5]; light microscopy,no observable differences
